Data from patent US5053070A, “Pyrimidine derivatives, preparation processes thereof, herbicide containing the same, and herbicidal compositions containing the same along with other active ingredient” (Mitsui Toatsu Chemicals, Incorporated, priority 1988, dated 1991).
In brackets after ≈: the same amount, converted by molar mass.

Experiments:
Format in all cases: in vivo
large crabgrass = assay: Upland soil application test (Test 2); conditions: 30 g ai/a, soil spray before emergence, 30 days later
Summary of the method: (§1)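 Damage was graded 30 days after treatment by comparing air-dried plant weight with that of plants in untreated pots. Test compound, given as a diluted wettable powder, had been sprayed on the soil surface one day after sowing, before any weeds emerged.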

barnyardgrass [1] = assay: Upland soil application test (Test 2); conditions: 30 g ai/a, soil spray before emergence, 30 days later
Summary of the method: as §1

redroot pigweed [2] = assay: Upland soil application test (Test 2); conditions: 30 g ai/a, soil spray before emergence, 30 days later
Summary of the method: as §1

green foxtail [3] = assay: Upland soil application test (Test 2); conditions: 30 g ai/a, soil spray before emergence, 30 days later
Summary of the method: as §1

johnsongrass [4] = assay: Upland soil application test (Test 2); conditions: 30 g ai/a, soil spray before emergence, 30 days later
Summary of the method: as §1

foxtail meadow = assay: Upland soil application test (Test 2); conditions: 30 g ai/a, soil spray before emergence, 30 days later
Summary of the method: as §1

common lambsquarters = assay: Upland soil application test (Test 2); conditions: 30 g ai/a, soil spray before emergence, 30 days later
Summary of the method: as §1

soybean = assay: Upland soil application test (Test 2), crop injury; conditions: 30 g ai/a, soil spray before emergence, 30 days later
Summary of the method: (§2)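 Soil-surface application of water-diluted wettable powder at 10 l per are, made one day after seeding and ahead of weed emergence. Plants stayed in the greenhouse for 30 days; injury was rated by air-dried weight versus untreated pots.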

cotton = assay: Upland soil application test (Test 2), crop injury; conditions: 30 g ai/a, soil spray before emergence, 30 days later
Summary of the method: as §2

peanut = assay: Upland soil application test (Test 2), crop injury; conditions: 30 g ai/a, soil spray before emergence, 30 days later
Summary of the method: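 Steps: fill pots with fertilized upland field soil containing uniformly mixed weed seed; sow crops and cover with 2-3 cm soil; after one day, spray the diluted wettable powder evenly over the soil at 10 l per are; assess at 30 days against untreated controls by dry weight.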

barnyardgrass [5] = assay: Treatment of soil under submerged condition, pre-emergence (Test 4); conditions: 30 g ai/a granule, 30 days later
Summary of the method: (§3)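 Scores reflect weed emergence and rice injury observed 30 days after a pre-emergence granule treatment. The granule, holding a predetermined amount of test composition, went onto submerged soil pots one day after sowing weeds and transplanting 2–3-leaf rice seedlings.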

Sagittaria pygmaea = assay: as above; conditions: 30 g ai/a granule, 30 days later
Summary of the method: as §3

bulrush = assay: as above; conditions: 30 g ai/a granule, 30 days later
Summary of the method: as §3

narrowleaf waterplantain = assay: Petri dish test (Test 6); conditions: 336 h; seeds on filter paper, 25° C., 14 days; read-out: I80 (ppm)
Summary of the method: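 Narrowleaf waterplantain seeds placed on filter paper pre-treated with compound in acetone (solvent air-dried) in 9 cm Petri dishes with 10 ml water, grown at 25° C in light. Growth was scored after fourteen days as degree of damage against an untreated group.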

barnyardgrass [6] = assay: Upland foliar application test by mixed formulations (Test 7); conditions: Echinochloa crus-galli, 720 h, applied alone, 30th day, read-out: Herbicidal effects (%) Barnyardgrass Ea; for pest or weed control at 300 g/ha: 0.3 kg/ha
Summary of the method: (§4)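 Foliar spray of two-compound mixed emulsion, diluted with water, at 5 l per are via ULV sprayer onto weeds at 2–3 leaf stage in upland soil pots, greenhouse. Effect observed 30 days after spraying. Measured mixture activity (Ea) compared with Colby expected value (Ec) derived from single-ingredient growth inhibition rates.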

redroot pigweed [7] = assay: as above; conditions: Amaranthus retroflexus, 720 h, applied alone, 30th day, read-out: Herbicidal effects (%) Redrood pigweed Ea; for pest or weed control at 300 g/ha: 0.3 kg/ha
Summary of the method: as §4

green foxtail [8] = assay: as above; conditions: Setaria viridis, 720 h, applied alone, 30th day, read-out: Herbicidal effects (%) Green foxtail Ea; for pest or weed control at 300 g/ha: 0.3 kg/ha
Summary of the method: as §4

morningglories = assay: as above; conditions: Ipomoea, 720 h, applied alone, 30th day, read-out: Herbicidal effects (%) Morningglory Ea; for pest or weed control at 300 g/ha: 0.3 kg/ha
Summary of the method: as §4

johnsongrass [9] = assay: as above; conditions: Sorghum halepense, 720 h, applied alone, 30th day, read-out: Herbicidal effects (%) Johnsongrass Ea; for pest or weed control at 300 g/ha: 0.3 kg/ha
Summary of the method: as §4

| Structure (SMILES) | Herbicidal effects Large crabgrass (large crabgrass) | Herbicidal effects Barnyardgrass (barnyardgrass [1]) | Herbicidal effects Redroot pigweed (redroot pigweed [2]) | Herbicidal effects Green foxtail (green foxtail [3]) | Herbicidal effects Johnsongrass (johnsongrass [4]) | Herbicidal effects Foxtail meadow (foxtail meadow) | Herbicidal effects Common lambsquarters (common lambsquarters) | Injury Soybean (soybean) | Injury Cotton (cotton) | Injury Peanut (peanut) | Herbicidal effects Barnyardgrass (barnyardgrass [5]) | Herbicidal effects Sagittaria Pygmaea (Sagittaria pygmaea) | Herbicidal effects Bulrush (bulrush) | IC80 (narrowleaf waterplantain) | pest or weed control at 300 g/ha (barnyardgrass [6]) | pest or weed control at 300 g/ha (redroot pigweed [7]) | pest or weed control at 300 g/ha (green foxtail [8]) | pest or weed control at 300 g/ha (morningglories) | pest or weed control at 300 g/ha (johnsongrass [9]) | other results |
| --- | --- | --- | --- | --- | --- | --- | --- | --- | --- | --- | --- | --- | --- | --- | --- | --- | --- | --- | --- | --- |
| COc1cc(OC)nc(Oc2ccccc2C=NOCC=Cc2ccc(Cl)cc2)n1 [Compound No. 28] | 4 (6-10 (Severe damages)) | 4 (6-10 (Severe damages)) | 4 (6-10 (Severe damages)) | 5 (0-5 (Death)) | 5 (0-5 (Death)) | 5 (0-5 (Death)) | 4 (6-10 (Severe damages)) | 0 (91-100 (No damages)) | 0 (91-100 (No damages)) | 0 (91-100 (No damages)) | 3 (11-40 (Medium damages)) | 3 (11-40 (Medium damages)) | 3 (11-40 (Medium damages)) | 2 µg/mL (≈ 4.7 µM) | 50% | 50% | 30% | 0% | 30% |  |
| CC#CCON=Cc1ccccc1Oc1nc(OC)cc(OC)n1 [compound 10] | 3 (11-40 (Medium damages)) | 3 (11-40 (Medium damages)) | 3 (11-40 (Medium damages)) | 4 (6-10 (Severe damages)) | 4 (6-10 (Severe damages)) | 4 (6-10 (Severe damages)) | 3 (11-40 (Medium damages)) | 0 (91-100 (No damages)) | 0 (91-100 (No damages)) | 0 (91-100 (No damages)) | 5 (0-5 (Death)) | 4 (6-10 (Severe damages)) | 4 (6-10 (Severe damages)) | 17 µg/mL (≈ 51.9 µM) |  |  |  |  |  | pest or weed control at 1000 g/ha (barnyardgrass [6]; 1 kg/ha): 10%; pest or weed control at 1000 g/ha (redroot pigweed [7]; 1 kg/ha): 10%; pest or weed control at 1000 g/ha (green foxtail [8]; 1 kg/ha): 20%; pest or weed control at 1000 g/ha (morningglories; 1 kg/ha): 0%; pest or weed control at 1000 g/ha (johnsongrass [9]; 1 kg/ha): 20% |
| COc1cc(OC)nc(Oc2ccccc2C=NOCC#Cc2ccccc2)n1 [compound 42] | 4 (6-10 (Severe damages)) | 5 (0-5 (Death)) | 3 (11-40 (Medium damages)) | 5 (0-5 (Death)) | 5 (0-5 (Death)) | 5 (0-5 (Death)) | 4 (6-10 (Severe damages)) | 0 (91-100 (No damages)) | 0 (91-100 (No damages)) | 0 (91-100 (No damages)) | 5 (0-5 (Death)) | 5 (0-5 (Death)) | 4 (6-10 (Severe damages)) | 17 µg/mL (≈ 43.7 µM) | 50% | 50% | 50% | 10% | 50% |  |
